These results are taken from patent US6936585B2, “Corticotropin releasing factor 2 receptor agonists” (priority 2002, dated 2005).

What is called Emax is the size of the effect at its maximum, as opposed to the concentration needed.

Structures are written as SMILES. Peptide text beside a SMILES is read from it.

The target in one experiment is T1, CRF2R (Homo sapiens, UniProt Q13324).
T1 sequence (Q13324 1-411): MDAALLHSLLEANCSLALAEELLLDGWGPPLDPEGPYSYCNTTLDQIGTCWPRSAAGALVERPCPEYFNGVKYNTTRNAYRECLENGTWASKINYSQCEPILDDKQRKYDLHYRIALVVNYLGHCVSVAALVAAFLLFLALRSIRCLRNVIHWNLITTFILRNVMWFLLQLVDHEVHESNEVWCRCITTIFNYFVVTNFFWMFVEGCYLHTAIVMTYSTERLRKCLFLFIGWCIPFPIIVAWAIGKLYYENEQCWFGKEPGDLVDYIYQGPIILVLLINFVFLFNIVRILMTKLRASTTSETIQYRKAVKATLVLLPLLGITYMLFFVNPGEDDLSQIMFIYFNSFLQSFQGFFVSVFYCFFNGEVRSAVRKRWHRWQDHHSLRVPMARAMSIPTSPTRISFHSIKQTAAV
The experiment can be described thus: CRF2R agonist activation (EC50 / Emax), called comparative CRF binding. The format is cell-based. The conditions noted are these: read-out: CRF2R Emax. From the text: (§1) The pharmacological activity and selectivity of the peptides of present invention can be determined using published test procedures. See, e.g, U.S. patent application Ser. No. 09/799,978 (now issued U.S. Pat. No. 6,670,140). Because CRF2R and CRF1R are homologous proteins, it is expected that a certain proportion of agonists for CRF2R will also function as agonists of CRF1R. As discussed above, activation of CRF1R induces activation of the HPA axis since increased corticosteroid production leads to skeletal muscle atrophy. In most cases in which an increase in muscle mass or function is desired, it is not desirable to activate the HPA axis.
(§2) Cell-based assays include the steps of contacting cells which express CRF1R or CRF2R with a peptide of the present invention or control and measuring activation of the CRFR by measuring the expression or activity of components of the CRFR signal transduction pathways.
(§3) For example, after contact with a peptide of the present invention, lysates of the cells can be prepared and assayed for induction of cAMP. cAMP is induced in response to Gαs activation. Because Gαs is activated by receptors other than CRFR and because a test peptide may be exerting its effect through CRFRs or by another mechanism, two control comparisons are relevant for determining whether the peptide increases levels of cAMP via activation of a CRFR. One control compares the cAMP level of cells contacted with the peptide and the cAMP level of cells contacted with a control compound (i.e., the vehicle in which the peptide is dissolved).
(§4) In one example, cAMP induction is measured with the use of DNA constructs containing the cAMP responsive element linked to any of a variety of reporter genes can be introduced into cells expressing CRFRs. Such reporter genes include, but are not limited to, chloramphenicol acetyltransferase (CAT), luciferase, glucuronide synthetase, growth hormone, fluorescent proteins (e.g., Green Fluorescent Protein), or alkaline phosphatase. Following exposure of the cells to the peptide, the level of reporter gene expression can be quantitated to determine the peptide's ability to increase cAMP levels and thus determine the peptide's ability to activate the CRFR.
(§5) In addition to using cells expressing full length CRFRs, cells can be engineered which express CRFRs containing the ligand binding domain of the receptor coupled to, or physically modified to contain, reporter elements or to interact with signaling proteins. For example, a wild type CRFR or CRFR fragment can be fused to a G-protein resulting in activation of the fused G-protein upon agonist binding to the CRFR portion of the fusion protein. […] In addition, alternative pathways for induction of the CRE reporter could be eliminated to reduce basal levels.

For a further experiment, the target named is T2, CRF1R (Homo sapiens, UniProt P34998).
T2 sequence (P34998 24-415): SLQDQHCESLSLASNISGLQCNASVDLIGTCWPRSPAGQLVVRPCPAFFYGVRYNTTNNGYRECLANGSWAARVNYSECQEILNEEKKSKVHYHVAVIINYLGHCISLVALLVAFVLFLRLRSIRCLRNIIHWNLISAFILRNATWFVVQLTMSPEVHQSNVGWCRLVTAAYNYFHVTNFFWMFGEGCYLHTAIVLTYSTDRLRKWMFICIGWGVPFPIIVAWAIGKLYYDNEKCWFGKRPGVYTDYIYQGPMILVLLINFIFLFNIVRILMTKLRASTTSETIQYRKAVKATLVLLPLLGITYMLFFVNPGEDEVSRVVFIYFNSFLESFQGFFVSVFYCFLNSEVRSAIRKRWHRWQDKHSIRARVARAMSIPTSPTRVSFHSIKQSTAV
Put plainly: CRF1R agonist activation (EC50 / Emax), called comparative CRF binding. The conditions noted are these: read-out: CRF1R Emax. The format is cell-based.
Source text: as §1, §2, §3, §4, §5

Turning to `CC[C@H](C)[C@H](N)C(=O)N[C@H](C(=O)N[C@@H](CC(C)C)C(=O)N[C@@H](CO)C(=O)N[C@@H](CC(C)C)C(=O)N[C@@H](CC(=O)O)C(=O)N[C@H](C(=O)N1CCC[C@H]1C(=O)NCC(=O)N1CCC[C@H]1C(=O)N[C@@H](CC(C)C)C(=O)N[C@@H](CC(C)C)C(=O)N[C@@H](CCC(N)=O)C(=O)N[C@H](C(=O)N[C@@H](CC(C)C)C(=O)N[C@@H](CC(C)C)C(=O)N[C@@H](CCC(=O)O)C(=O)N[C@@H](CCC(N)=O)C(=O)N[C@H](C(=O)N[C@@H](CCCCN)C(=O)N[C@@H](CCC(N)=O)C(=O)N[C@@H](CCC(=O)O)C(=O)N[C@@H](C)C(=O)N[C@@H](C)C(=O)N[C@@H](CCCNC(=N)N)C(=O)N[C@@H](CCC(=O)O)C(=O)N[C@@H](CCC(N)=O)C(=O)N[C@@H](C)C(=O)N[C@H](C(=O)N[C@H](C(=O)N[C@@H](CC(N)=O)C(=O)N[C@@H](C)C(=O)N[C@@H](CCCNC(=N)N)C(=O)N[C@H](C(=O)N[C@@H](CC(C)C)C(=O)N[C@@H](C)C(=O)N[C@@H](CCCNC(=N)N)C(=O)N[C@H](C(N)=O)C(C)C)[C@@H](C)CC)[C@@H](C)O)[C@@H](C)O)[C@@H](C)O)[C@@H](C)CC)C(C)C)C(C)C` [compound 5] (H-IVLSLDVPGPLLQILLEQTKQEAAREQATTNARILARV-NH2), the figures for the Emax on CRF2R and on CRF1R were 12% and 9%, respectively.

On to `CC[C@H](C)[C@H](N)C(=O)N[C@H](C(=O)N[C@@H](CC(C)C)C(=O)N[C@@H](CO)C(=O)N[C@@H](CC(C)C)C(=O)N[C@@H](CC(=O)O)C(=O)N[C@H](C(=O)N1CCC[C@H]1C(=O)N[C@H](C(=O)NCC(=O)N[C@@H](CC(C)C)C(=O)N[C@@H](CC(C)C)C(=O)N[C@@H](CCC(N)=O)C(=O)N[C@H](C(=O)N[C@@H](CC(C)C)C(=O)N[C@@H](CC(C)C)C(=O)N[C@@H](CCC(=O)O)C(=O)N[C@@H](CCC(N)=O)C(=O)N[C@@H](C)C(=O)N[C@@H](CCCNC(=N)N)C(=O)N[C@@H](C)C(=O)N[C@@H](CCCNC(=N)N)C(=O)N[C@@H](C)C(=O)N[C@@H](C)C(=O)N[C@@H](CCCNC(=N)N)C(=O)N[C@@H](CCC(=O)O)C(=O)N[C@@H](CCC(N)=O)C(=O)N[C@@H](C)C(=O)N[C@H](C(=O)N[C@H](C(=O)N[C@@H](CCC(N)=O)C(=O)N[C@@H](C)C(=O)N[C@@H](CCCNC(=N)N)C(=O)N[C@H](C(=O)N[C@@H](CC(C)C)C(=O)N[C@@H](C)C(=O)N[C@@H](CCCNC(=N)N)C(=O)N[C@H](C(N)=O)C(C)C)[C@@H](C)CC)[C@@H](C)O)[C@@H](C)O)[C@@H](C)CC)[C@@H](C)CC)C(C)C)C(C)C` [compound 9] (H-IVLSLDVPIGLLQILLEQARARAAREQATTQARILARV-NH2), for which the Emax was found to be 34% at CRF2R and 10% at CRF1R.

As for `CC[C@H](C)[C@H](NC(=O)[C@H](CC(=O)O)NC(=O)[C@H](CC(C)C)NC(=O)[C@H](CC(C)C)NC(=O)[C@H](CCCCN)NC(=O)[C@H](CCCNC(=N)N)NC(=O)[C@H](CC(N)=O)NC(=O)[C@H](CO)NC(=O)[C@H](Cc1c[nH]cn1)NC(=O)[C@H](C)NC(=O)[C@H](CCC(N)=O)NC(=O)[C@H](CCC(N)=O)NC(=O)[C@H](C)NC(=O)[C@H](CC(C)C)NC(=O)[C@H](CCC(N)=O)NC(=O)[C@H](CC(=O)O)NC(=O)[C@H](C)NC(=O)[C@H](CCCCN)NC(=O)[C@@H](NC(=O)[C@H](CCSC)NC(=O)[C@H](CCC(=O)O)NC(=O)[C@H](CC(C)C)NC(=O)[C@@H](NC(=O)[C@H](CCC(=O)O)NC(=O)[C@H](CCCNC(=N)N)NC(=O)[C@H](CC(C)C)NC(=O)[C@H](CC(C)C)NC(=O)[C@H](Cc1c[nH]cn1)NC(=O)[C@H](Cc1ccccc1)NC(=O)[C@@H]1CCCN1C(=O)[C@H](CC(C)C)NC(=O)[C@H](CC(=O)O)NC(=O)[C@H](CC(C)C)NC(=O)[C@H](CO)NC(=O)[C@@H](NC(=O)[C@@H]1CCCN1C(=O)[C@@H]1CCCN1C(=O)[C@H](CCC(=O)O)NC(=O)[C@H](CCC(N)=O)NC(=O)[C@@H](N)CO)[C@@H](C)CC)C(C)C)[C@@H](C)O)C(=O)N[C@@H](C)C(N)=O` [compound 104], the maximum response (Emax) at CRF2R is 4.5%; at CRF1R, 11.1%.

For `CC[C@H](C)[C@H](N)C(=O)N[C@H](C(=O)N[C@@H](CC(C)C)C(=O)N[C@@H](CO)C(=O)N[C@@H](CC(C)C)C(=O)N[C@@H](CC(=O)O)C(=O)N[C@H](C(=O)N1CCC[C@H]1C(=O)N[C@H](C(=O)NCC(=O)N[C@@H](CC(C)C)C(=O)N[C@@H](CC(C)C)C(=O)N[C@@H](CCC(N)=O)C(=O)N[C@H](C(=O)N[C@@H](CC(C)C)C(=O)N[C@@H](CC(C)C)C(=O)N[C@@H](CCC(=O)O)C(=O)N[C@@H](CCC(N)=O)C(=O)N[C@H](C(=O)N[C@@H](CCCCN)C(=O)N[C@@H](C)C(=O)N[C@@H](CC(=O)O)C(=O)N[C@@H](C)C(=O)N[C@@H](C)C(=O)N[C@@H](CCCNC(=N)N)C(=O)N[C@@H](CCC(=O)O)C(=O)N[C@@H](CCC(N)=O)C(=O)N[C@@H](C)C(=O)N[C@H](C(=O)N[C@H](C(=O)N[C@@H](CC(N)=O)C(=O)N[C@@H](C)C(=O)N[C@@H](CCCNC(=N)N)C(=O)N[C@H](C(=O)N[C@@H](CC(C)C)C(=O)N[C@@H](C)C(=O)N[C@@H](CCCNC(=N)N)C(=O)N[C@H](C(N)=O)C(C)C)[C@@H](C)CC)[C@@H](C)O)[C@@H](C)O)[C@@H](C)O)[C@@H](C)CC)[C@@H](C)CC)C(C)C)C(C)C` [compound 108] (H-IVLSLDVPIGLLQILLEQTKADAAREQATTNARILARV-NH2; N-terminus assumed), the values for the maximal effect (Emax) on CRF2R and at CRF1R were 97% and 3%, respectively.

For the compound `CC[C@H](C)[C@H](N)C(=O)N[C@H](C(=O)N[C@@H](CC(C)C)C(=O)N[C@@H](CO)C(=O)N[C@@H](CC(C)C)C(=O)N[C@@H](CC(=O)O)C(=O)N[C@H](C(=O)N1CCC[C@H]1C(=O)N[C@H](C(=O)NCC(=O)N[C@@H](CC(C)C)C(=O)N[C@@H](CC(C)C)C(=O)N[C@@H](CCC(N)=O)C(=O)N[C@H](C(=O)N[C@@H](CC(C)C)C(=O)N[C@@H](CC(C)C)C(=O)N[C@@H](CCC(=O)O)C(=O)N[C@@H](CCC(N)=O)C(=O)N[C@@H](C)C(=O)N[C@@H](CCCCN)C(=O)N[C@@H](C)C(=O)N[C@@H](CCCNC(=N)N)C(=O)N[C@@H](C)C(=O)N[C@@H](C)C(=O)N[C@@H](CCCNC(=N)N)C(=O)N[C@@H](CCC(=O)O)C(=O)N[C@@H](CCC(N)=O)C(=O)N[C@@H](C)C(=O)N[C@H](C(=O)N[C@H](C(=O)N[C@@H](CC(N)=O)C(=O)N[C@@H](C)C(=O)N[C@@H](CCCNC(=N)N)C(=O)N[C@H](C(=O)N[C@@H](CC(C)C)C(=O)N[C@@H](C)C(=O)N[C@@H](CCCNC(=N)N)C(=O)N[C@H](C(N)=O)C(C)C)[C@@H](C)CC)[C@@H](C)O)[C@@H](C)O)[C@@H](C)CC)[C@@H](C)CC)C(C)C)C(C)C` [compound 109] (H-IVLSLDVPIGLLQILLEQAKARAAREQATTNARILARV-NH2; N-terminus assumed), the results for the Emax at CRF2R and on CRF1R were 91.7% and 6.7%, respectively.
